From paper PMC8449059, “Structural and functional variation of chitin-binding domains of a lytic polysaccharide monooxygenase from Cellvibrio japonicus” (The Journal of Biological Chemistry, 2021)

Target: T1, CjCBM5 (family 5 carbohydrate-binding module of CjLPMO10A) (Cellvibrio japonicus, UniProt B3PJ79)
T1 construct: gene cbp33A; isolated CBM5 domain, residues 251-309 of 397; extra N-terminal Met, C-terminal Ala + 6xHis tag kept; 15N-labelled; E. coli cytoplasmic expression (pNIC-CH)
Test: NMR titration, […]-HSQC chemical shift perturbation
Conditions: 50 mM sodium phosphate, pH 7.0, 10% D2O; 70 uM 15N-labelled protein; average of W283, T284, Q285, Y296, G297

T1 sequence (B3PJ79 entry or part of it): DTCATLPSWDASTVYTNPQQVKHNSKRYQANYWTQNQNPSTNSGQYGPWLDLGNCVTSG

- Kd: 2 ± 1 mM
Structure (SMILES): CC(=O)N[C@H]1[C@H](O[C@H]2[C@H](O)[C@@H](NC(C)=O)C(O[C@H]3[C@H](O)[C@@H](NC(C)=O)C(O[C@H]4[C@H](O)[C@@H](NC(C)=O)C(O[C@H]5[C@H](O)[C@@H](NC(C)=O)C(O[C@H]6[C@H](O)[C@@H](NC(C)=O)C(O)O[C@@H]6CO)O[C@@H]5CO)O[C@@H]4CO)O[C@@H]3CO)O[C@@H]2CO)O[C@H](CO)[C@@H](O)[C@@H]1O (stereo partly shown) [chitohexaose]
